Key:
[1] = system: Tyrosine-protein kinase ABL1 (Homo sapiens), P00519 [Y253F]; conditions: Compound concentration 1000.0 nM
[2] = target: Tyrosine-protein kinase ABL2 (Homo sapiens) (UniProt P42684); conditions: Compound concentration 1000.0 nM
[3] = target: Activin receptor type-2A (Homo sapiens) (UniProt P27037); conditions: Compound concentration 1000.0 nM
[4] = target: Bone morphogenetic protein receptor type-1B (Homo sapiens) (UniProt O00238); conditions: Compound concentration 1000.0 nM
[5] = target: Serine/threonine-protein kinase BRSK1 (Homo sapiens) (UniProt Q8TDC3); conditions: Compound concentration 1000.0 nM
Serine/threonine-protein kinase BRSK1 (Homo sapiens), sequence (Q8TDC3 whole entry): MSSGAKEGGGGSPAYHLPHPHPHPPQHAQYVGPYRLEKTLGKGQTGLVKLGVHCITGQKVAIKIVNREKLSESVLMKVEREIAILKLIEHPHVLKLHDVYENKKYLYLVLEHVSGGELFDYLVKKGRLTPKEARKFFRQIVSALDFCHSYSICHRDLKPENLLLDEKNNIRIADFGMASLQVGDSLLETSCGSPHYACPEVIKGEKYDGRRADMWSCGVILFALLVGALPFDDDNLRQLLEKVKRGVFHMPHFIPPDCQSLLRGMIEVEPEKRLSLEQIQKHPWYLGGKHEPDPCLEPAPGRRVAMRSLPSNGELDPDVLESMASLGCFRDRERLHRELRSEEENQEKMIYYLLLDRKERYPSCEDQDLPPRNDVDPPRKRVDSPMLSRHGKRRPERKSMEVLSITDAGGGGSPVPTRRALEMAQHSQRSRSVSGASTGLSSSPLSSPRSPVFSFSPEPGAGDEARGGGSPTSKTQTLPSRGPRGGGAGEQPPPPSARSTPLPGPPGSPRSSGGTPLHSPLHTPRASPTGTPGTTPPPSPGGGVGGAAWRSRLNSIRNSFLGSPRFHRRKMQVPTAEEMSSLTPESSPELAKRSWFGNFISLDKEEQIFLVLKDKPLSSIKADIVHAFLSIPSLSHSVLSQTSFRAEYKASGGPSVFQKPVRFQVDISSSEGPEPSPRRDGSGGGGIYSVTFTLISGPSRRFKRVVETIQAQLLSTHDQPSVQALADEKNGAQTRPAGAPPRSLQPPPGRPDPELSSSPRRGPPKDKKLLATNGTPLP

[6] = target: Calcium/calmodulin-dependent protein kinase type 1D (Homo sapiens) (UniProt Q8IU85); conditions: Compound concentration 1000.0 nM
[7] = target: Cyclin-dependent kinase 13 (Homo sapiens) (UniProt Q14004); conditions: Compound concentration 1000.0 nM
[8] = target: Cyclin-dependent kinase 2 (Homo sapiens) (UniProt P24941); conditions: Compound concentration 1000.0 nM
[9] = target: Casein kinase II subunit alpha' (Homo sapiens) (UniProt P19784); conditions: Compound concentration 1000.0 nM
[10] = target: Death-associated protein kinase 1 (Homo sapiens) (UniProt P53355); conditions: Compound concentration 1000.0 nM
[11] = target: Discoidin domain-containing receptor 2 (Homo sapiens) (UniProt Q16832); conditions: Compound concentration 1000.0 nM
[12] = target: Serine/threonine-protein kinase 17A (Homo sapiens) (UniProt Q9UEE5); conditions: Compound concentration 1000.0 nM
Serine/threonine-protein kinase 17A (Homo sapiens), sequence (Q9UEE5 whole entry): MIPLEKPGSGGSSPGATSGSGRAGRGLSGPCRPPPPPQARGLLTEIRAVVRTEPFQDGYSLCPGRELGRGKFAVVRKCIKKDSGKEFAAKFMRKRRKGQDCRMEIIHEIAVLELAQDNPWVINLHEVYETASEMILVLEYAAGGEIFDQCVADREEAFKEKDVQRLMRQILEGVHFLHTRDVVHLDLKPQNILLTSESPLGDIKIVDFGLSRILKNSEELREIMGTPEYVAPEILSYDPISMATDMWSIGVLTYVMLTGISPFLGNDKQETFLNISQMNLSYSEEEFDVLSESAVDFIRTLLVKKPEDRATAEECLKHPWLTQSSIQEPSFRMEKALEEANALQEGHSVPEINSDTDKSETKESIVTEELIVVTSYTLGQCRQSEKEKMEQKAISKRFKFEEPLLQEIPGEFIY

[13] = target: Epidermal growth factor receptor (Homo sapiens) (UniProt P00533); conditions: Compound concentration 1000.0 nM
[14] = system: Epidermal growth factor receptor (Homo sapiens), P00533 [UNDEFINED MUTATION]; conditions: Compound concentration 1000.0 nM
Epidermal growth factor receptor (Homo sapiens), P00533 [UNDEFINED MUTATION], sequence (P00533 whole entry, looked up, change not shown): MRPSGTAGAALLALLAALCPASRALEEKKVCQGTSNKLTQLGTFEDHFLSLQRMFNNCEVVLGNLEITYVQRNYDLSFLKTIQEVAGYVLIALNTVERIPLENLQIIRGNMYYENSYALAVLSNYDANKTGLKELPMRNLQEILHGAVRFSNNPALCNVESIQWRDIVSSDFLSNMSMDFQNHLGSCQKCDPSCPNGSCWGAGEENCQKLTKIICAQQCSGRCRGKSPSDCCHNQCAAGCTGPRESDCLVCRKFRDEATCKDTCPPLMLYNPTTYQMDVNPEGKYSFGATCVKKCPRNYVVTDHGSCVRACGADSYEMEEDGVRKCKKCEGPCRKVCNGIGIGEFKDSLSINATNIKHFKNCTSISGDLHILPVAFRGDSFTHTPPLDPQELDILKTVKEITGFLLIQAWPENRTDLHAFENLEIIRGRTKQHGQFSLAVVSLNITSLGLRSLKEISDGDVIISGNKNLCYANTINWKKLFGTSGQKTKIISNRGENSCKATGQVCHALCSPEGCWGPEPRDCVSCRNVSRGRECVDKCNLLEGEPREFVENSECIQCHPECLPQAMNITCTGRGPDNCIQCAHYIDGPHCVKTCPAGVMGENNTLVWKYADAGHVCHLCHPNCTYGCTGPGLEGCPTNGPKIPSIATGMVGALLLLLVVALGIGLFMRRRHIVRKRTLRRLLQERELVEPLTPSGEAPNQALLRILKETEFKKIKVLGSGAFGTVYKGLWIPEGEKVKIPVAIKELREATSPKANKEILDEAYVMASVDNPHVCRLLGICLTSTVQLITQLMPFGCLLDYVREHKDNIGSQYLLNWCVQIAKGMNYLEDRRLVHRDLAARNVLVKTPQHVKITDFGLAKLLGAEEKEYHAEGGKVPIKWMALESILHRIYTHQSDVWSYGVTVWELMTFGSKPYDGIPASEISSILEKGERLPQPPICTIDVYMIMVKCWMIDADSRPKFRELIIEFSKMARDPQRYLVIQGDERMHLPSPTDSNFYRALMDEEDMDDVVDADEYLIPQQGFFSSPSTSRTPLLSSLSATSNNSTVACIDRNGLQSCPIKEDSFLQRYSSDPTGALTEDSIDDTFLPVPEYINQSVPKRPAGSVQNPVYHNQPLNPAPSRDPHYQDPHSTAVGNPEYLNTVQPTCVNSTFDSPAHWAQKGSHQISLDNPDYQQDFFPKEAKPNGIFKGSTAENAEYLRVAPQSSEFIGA

[15] = target: Ephrin type-A receptor 5 (Homo sapiens) (UniProt P54756); conditions: Compound concentration 1000.0 nM
[16] = target: Mitogen-activated protein kinase 1 (Homo sapiens) (UniProt P28482); conditions: Compound concentration 1000.0 nM
Mitogen-activated protein kinase 1 (Homo sapiens), sequence (P28482 whole entry): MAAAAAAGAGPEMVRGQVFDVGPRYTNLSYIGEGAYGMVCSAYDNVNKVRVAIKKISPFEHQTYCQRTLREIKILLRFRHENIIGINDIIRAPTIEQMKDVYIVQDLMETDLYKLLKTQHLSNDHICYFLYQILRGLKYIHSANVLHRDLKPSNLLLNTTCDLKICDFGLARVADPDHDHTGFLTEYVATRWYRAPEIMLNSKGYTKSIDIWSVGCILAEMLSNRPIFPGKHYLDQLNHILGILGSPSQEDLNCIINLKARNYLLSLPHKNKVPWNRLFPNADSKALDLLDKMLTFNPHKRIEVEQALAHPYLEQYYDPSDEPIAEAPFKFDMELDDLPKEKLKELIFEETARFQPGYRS

[17] = target: Fibroblast growth factor receptor 4 (Homo sapiens) (UniProt P22455); conditions: Compound concentration 1000.0 nM
[18] = target: Serine/threonine-protein kinase ICK (Homo sapiens) (UniProt Q9UPZ9); conditions: Compound concentration 1000.0 nM
[19] = target: Dual specificity mitogen-activated protein kinase kinase 4 (Homo sapiens) (UniProt P45985); conditions: Compound concentration 1000.0 nM
[20] = target: Dual specificity mitogen-activated protein kinase kinase 6 (Homo sapiens) (UniProt P52564); conditions: Compound concentration 1000.0 nM
[21] = target: Misshapen-like kinase 1 (Homo sapiens) (UniProt Q8N4C8); conditions: Compound concentration 1000.0 nM
[22] = target: Serine/threonine-protein kinase MRCK beta (Homo sapiens) (UniProt Q9Y5S2); conditions: Compound concentration 1000.0 nM
[23] = target: Serine/threonine-protein kinase 24 (Homo sapiens) (UniProt Q9Y6E0); conditions: Compound concentration 1000.0 nM
[24] = target: Serine/threonine-protein kinase 38 (Homo sapiens) (UniProt Q15208); conditions: Compound concentration 1000.0 nM
Serine/threonine-protein kinase 38 (Homo sapiens), sequence (Q15208 2-465 limits assumed): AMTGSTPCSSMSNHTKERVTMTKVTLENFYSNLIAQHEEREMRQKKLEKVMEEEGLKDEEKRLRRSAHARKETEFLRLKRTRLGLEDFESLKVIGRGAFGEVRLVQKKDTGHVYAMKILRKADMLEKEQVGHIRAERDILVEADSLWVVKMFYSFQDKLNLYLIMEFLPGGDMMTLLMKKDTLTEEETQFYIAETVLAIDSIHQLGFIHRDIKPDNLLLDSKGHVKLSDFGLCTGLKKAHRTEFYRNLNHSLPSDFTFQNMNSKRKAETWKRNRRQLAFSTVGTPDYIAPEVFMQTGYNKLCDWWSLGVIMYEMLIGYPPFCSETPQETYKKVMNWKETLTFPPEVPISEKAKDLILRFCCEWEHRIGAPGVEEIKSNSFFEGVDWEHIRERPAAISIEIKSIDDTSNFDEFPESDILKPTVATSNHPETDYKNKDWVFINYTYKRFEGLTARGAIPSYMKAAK

[25] = target: Serine/threonine-protein kinase Nek11 (Homo sapiens) (UniProt Q8NG66); conditions: Compound concentration 1000.0 nM
[26] = target: Cyclin-dependent kinase 14 (Homo sapiens) (UniProt O94921); conditions: Compound concentration 1000.0 nM
[27] = target: Phosphatidylinositol 4,5-bisphosphate 3-kinase catalytic subunit delta isoform (Homo sapiens) (UniProt O00329); conditions: Compound concentration 1000.0 nM
[28] = target: Serine/threonine-protein kinase pim-1 (Homo sapiens) (UniProt P11309); conditions: Compound concentration 1000.0 nM
[29] = target: Phosphatidylinositol 5-phosphate 4-kinase type-2 beta (Homo sapiens) (UniProt P78356); conditions: Compound concentration 1000.0 nM
[30] = target: Serine/threonine-protein kinase N2 (Homo sapiens) (UniProt Q16513); conditions: Compound concentration 1000.0 nM
[31] = target: Protein-tyrosine kinase 2-beta (Homo sapiens) (UniProt Q14289); conditions: Compound concentration 1000.0 nM
Protein-tyrosine kinase 2-beta (Homo sapiens), sequence (Q14289 whole entry, looked up): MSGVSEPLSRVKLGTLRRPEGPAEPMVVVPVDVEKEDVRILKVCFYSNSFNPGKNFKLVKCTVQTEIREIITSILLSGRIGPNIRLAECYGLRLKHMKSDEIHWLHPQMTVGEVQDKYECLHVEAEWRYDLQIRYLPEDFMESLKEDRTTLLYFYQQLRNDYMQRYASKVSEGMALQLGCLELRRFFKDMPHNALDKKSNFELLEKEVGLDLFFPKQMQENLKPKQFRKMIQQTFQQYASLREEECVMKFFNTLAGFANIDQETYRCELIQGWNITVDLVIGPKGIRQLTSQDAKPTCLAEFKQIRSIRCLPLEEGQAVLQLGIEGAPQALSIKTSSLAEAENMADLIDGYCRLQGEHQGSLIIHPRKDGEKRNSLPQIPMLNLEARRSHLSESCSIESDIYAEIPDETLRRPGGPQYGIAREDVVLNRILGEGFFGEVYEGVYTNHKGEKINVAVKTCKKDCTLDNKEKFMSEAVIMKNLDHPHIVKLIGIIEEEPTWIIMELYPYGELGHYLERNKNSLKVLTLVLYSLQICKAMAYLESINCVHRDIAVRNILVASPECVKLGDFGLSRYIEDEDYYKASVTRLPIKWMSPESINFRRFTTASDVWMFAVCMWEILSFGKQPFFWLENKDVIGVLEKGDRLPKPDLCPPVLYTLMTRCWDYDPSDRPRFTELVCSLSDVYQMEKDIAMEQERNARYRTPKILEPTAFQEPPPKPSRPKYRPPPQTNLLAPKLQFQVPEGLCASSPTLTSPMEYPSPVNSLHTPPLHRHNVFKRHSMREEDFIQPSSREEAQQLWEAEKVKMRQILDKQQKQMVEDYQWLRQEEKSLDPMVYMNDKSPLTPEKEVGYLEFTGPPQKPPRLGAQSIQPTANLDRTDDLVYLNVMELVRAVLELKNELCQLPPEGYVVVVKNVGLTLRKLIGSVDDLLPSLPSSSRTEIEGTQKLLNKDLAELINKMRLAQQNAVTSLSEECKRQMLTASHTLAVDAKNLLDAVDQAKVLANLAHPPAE

[32] = target: Ribosomal protein S6 kinase alpha-2 (Homo sapiens) (UniProt Q15349); conditions: Compound concentration 1000.0 nM
[33] = target: Proto-oncogene tyrosine-protein kinase Src (Homo sapiens) (UniProt P12931); conditions: Compound concentration 1000.0 nM
[34] = target: SRSF protein kinase 1 (Homo sapiens) (UniProt Q96SB4); conditions: Compound concentration 1000.0 nM
[35] = target: Serine/threonine-protein kinase TAO1 (Homo sapiens) (UniProt Q7L7X3); conditions: Compound concentration 1000.0 nM
[36] = target: BDNF/NT-3 growth factors receptor (Homo sapiens) (UniProt Q16620); conditions: Compound concentration 1000.0 nM
BDNF/NT-3 growth factors receptor (Homo sapiens), sequence (Q16620 32-822 limits assumed): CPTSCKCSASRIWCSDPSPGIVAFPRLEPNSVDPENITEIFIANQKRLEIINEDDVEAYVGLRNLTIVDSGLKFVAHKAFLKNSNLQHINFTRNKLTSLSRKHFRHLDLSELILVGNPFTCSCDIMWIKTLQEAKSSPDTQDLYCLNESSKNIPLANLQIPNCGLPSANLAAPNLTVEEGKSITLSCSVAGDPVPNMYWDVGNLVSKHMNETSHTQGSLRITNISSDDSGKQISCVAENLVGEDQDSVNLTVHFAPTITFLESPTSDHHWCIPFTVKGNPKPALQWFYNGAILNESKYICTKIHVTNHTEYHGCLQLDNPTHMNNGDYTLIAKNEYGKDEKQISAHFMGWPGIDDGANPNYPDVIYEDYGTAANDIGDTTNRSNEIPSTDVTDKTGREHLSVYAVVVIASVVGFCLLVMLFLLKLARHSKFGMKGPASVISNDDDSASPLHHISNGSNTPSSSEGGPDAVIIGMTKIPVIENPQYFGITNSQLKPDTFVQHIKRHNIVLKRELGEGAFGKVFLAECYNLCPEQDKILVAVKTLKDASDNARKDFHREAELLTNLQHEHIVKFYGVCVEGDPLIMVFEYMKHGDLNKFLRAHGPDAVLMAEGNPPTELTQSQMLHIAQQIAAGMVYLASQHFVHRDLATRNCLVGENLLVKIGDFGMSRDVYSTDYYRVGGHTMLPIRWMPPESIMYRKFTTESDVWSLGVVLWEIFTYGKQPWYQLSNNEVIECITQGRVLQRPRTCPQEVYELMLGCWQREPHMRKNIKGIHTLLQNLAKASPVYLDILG

[37] = target: Testis-specific serine/threonine-protein kinase 1 (Homo sapiens) (UniProt Q9BXA7); conditions: Compound concentration 1000.0 nM
[38] = target: T1, Alpha-1A adrenergic receptor (Homo sapiens) (UniProt P35348); conditions: Compound concentration 10.0 uM
T1 sequence (whole entry): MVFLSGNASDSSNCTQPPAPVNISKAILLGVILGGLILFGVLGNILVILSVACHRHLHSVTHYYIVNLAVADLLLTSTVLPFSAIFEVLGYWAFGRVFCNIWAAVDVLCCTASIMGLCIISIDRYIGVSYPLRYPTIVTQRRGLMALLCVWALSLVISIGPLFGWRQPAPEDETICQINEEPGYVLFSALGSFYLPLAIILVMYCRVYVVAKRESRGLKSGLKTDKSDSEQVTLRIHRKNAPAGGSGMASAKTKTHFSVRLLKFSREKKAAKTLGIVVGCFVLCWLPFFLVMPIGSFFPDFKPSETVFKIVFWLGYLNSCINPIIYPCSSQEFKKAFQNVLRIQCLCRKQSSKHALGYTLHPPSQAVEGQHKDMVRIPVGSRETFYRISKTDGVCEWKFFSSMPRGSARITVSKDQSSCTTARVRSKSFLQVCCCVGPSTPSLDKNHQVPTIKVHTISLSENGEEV

[39] = target: Muscarinic acetylcholine receptor M5 (Homo sapiens) (UniProt P08912); conditions: Compound concentration 10.0 uM

O=C(NC[C@@H]1[C@H]2CN(C(=O)OCc3cc(C(F)(F)F)cc(C(F)(F)F)c3)C[C@@H]12)c1ccc2[nH]nnc2c1 [BI 2545]
inactive: residual activity [1] 95% | residual activity [2] 98% | residual activity [3] 92% | residual activity [4] 95% | residual activity [5] 89% | residual activity [6] 100% | residual activity [7] 85% | residual activity [8] 100% | residual activity [9] 92% | residual activity [10] 93% | residual activity [11] 82% | residual activity [12] 95% | residual activity [13] 99% | residual activity [14] 100% | residual activity [15] 100% | residual activity [16] 100% | residual activity [17] 82% | residual activity [18] 100% | residual activity [19] 95% | residual activity [20] 72% | residual activity [21] 72% | residual activity [22] 100% | residual activity [23] 90% | residual activity [24] 75% | residual activity [25] 100% | residual activity [26] 96% | residual activity [27] 75% | residual activity [28] 98% | residual activity [29] 100% | residual activity [30] 93% | residual activity [31] 85% | residual activity [32] 100% | residual activity [33] 100% | residual activity [34] 81% | residual activity [35] 78% | residual activity [36] 99% | residual activity [37] 100% | inhibition [38] 4.06% | inhibition [39] 15.3%

Cc1nccc(COC(=O)N2C[C@@H]3[C@@H](CNC(=O)c4ccc5[nH]nnc5c4)[C@@H]3C2)n1 [BI 3017]
inactive: residual activity [1] 93% | residual activity [2] 90% | residual activity [3] 69% | residual activity [4] 100% | residual activity [5] 100% | residual activity [6] 100% | residual activity [7] 82% | residual activity [8] 77% | residual activity [9] 85% | residual activity [10] 95% | residual activity [11] 77% | residual activity [12] 79% | residual activity [13] 82% | residual activity [14] 87% | residual activity [15] 93% | residual activity [16] 100% | residual activity [17] 81% | residual activity [18] 100% | residual activity [19] 100% | residual activity [20] 100% | residual activity [21] 100% | residual activity [22] 82% | residual activity [23] 90% | residual activity [24] 100% | residual activity [25] 88% | residual activity [26] 100% | residual activity [27] 85% | residual activity [28] 96% | residual activity [29] 100% | residual activity [30] 100% | residual activity [31] 100% | residual activity [32] 100% | residual activity [33] 100% | residual activity [34] 80% | residual activity [35] 85% | residual activity [36] 100% | residual activity [37] 91% | inhibition [38] -3.15% | inhibition [39] -9.7%

Reference: ChEMBL document CHEMBL4507275, “Data for DCP probe BI-2545” (2021)
